The text below walks through data of article PMC12339982 (Nature Communications, 2025).

The target of experiment [1] is T1, human wild type TauT (TauT^WT) (Homo sapiens, UniProt P31641).
T1 sequence (P31641 1-620): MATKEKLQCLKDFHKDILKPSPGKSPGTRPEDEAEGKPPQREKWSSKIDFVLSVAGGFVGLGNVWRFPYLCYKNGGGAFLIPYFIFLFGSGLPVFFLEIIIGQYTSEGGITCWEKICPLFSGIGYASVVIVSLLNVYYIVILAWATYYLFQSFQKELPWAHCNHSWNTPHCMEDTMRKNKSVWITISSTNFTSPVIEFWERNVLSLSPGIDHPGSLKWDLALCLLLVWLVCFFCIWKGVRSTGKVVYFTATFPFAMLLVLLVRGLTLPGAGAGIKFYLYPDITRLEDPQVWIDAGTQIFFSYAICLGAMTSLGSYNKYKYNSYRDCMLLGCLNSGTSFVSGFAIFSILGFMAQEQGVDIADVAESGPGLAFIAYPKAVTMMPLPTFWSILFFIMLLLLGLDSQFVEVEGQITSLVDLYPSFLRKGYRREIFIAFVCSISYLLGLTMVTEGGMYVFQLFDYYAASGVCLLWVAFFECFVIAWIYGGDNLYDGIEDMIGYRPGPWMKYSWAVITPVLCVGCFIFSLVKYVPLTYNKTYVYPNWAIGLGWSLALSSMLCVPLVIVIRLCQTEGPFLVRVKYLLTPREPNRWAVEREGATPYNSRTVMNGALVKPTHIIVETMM
The experiment can be described thus: [3H]taurine uptake inhibition assay in HEK293T cells overexpressing TauT^WT. Format: cell-based. The settings on record: for inhibition of the uptake activity of TauT: result in words.

A further experiment deals with hGAT1. The settings on record: previous studies; cited from earlier work.

Take `NCCCCC(=O)O` [5AVA, 5-aminovaleric acid]: the “inhibition of the uptake activity of TauT” value (“inhibition” for short) in experiment [1] is on record as “concentration-dependently inhibited”.
By IC50 is commonly meant the point on the concentration scale where inhibition reaches its midpoint. A low value points to greater potency. Take `NCCCS(=O)(=O)O` [Htau, homotaurine]: in experiment [1], inhibition was half-maximal at 770 ± 160 µM (IC50) and the “inhibition” value was “concentration-dependently inhibited”.
On to `O=C(O)Cc1c[nH]cn1` [I4AA, imidazole-4-acetic acid], for which the “inhibition” value in experiment [1] was “concentration-dependently inhibited”.
Same read-out and setting: under `O=S(=O)(O)C1CCNCC1` [P4S, piperidine-4-sulfonic acid] stands “concentration-dependently inhibited”.
As for `O=C(O)C1CCCNC1` (stereo not shown) [nipecotic acid], the “IC50 for hGAT1 compared with hTauT” value with hGAT1 is listed as “lower IC50 value for hGAT1 than for hTauT”. Also, the “inhibition” value in experiment [1] is “concentration-dependently inhibited”.
